Entries after “also recorded” stand apart in the source; their conditions may differ.

Holding throughout (assay type): physicochemical
Data set [1] can be described thus: Volatilization measurements (ammonia release, 2 L diffusion kit, Draeger tube). The following applies: YaraVera Amidas product comprising 462 ppm nBTPT, treated with stabilizer (FIG. 1, Table 1). From the text:
1. Volatilization Measurements (Ammonia Release 2 L Diffusion Kit) […] Through the lid, a […] tube is placed for the measurement of vol % ammonia. The […] tube turns from yellow to bleu/purple when ammonia is absorbed by the tube. The amount of vol % ammonia released can be followed in time. Experiment 1 defines the problem.

A short description of another data set: pH of MgSO4 grades.
A short description of data set [2]: Stability of nBTPT on urea ammonium sulphate (YaraVera Amidas) during storage, HPLC analysis of nBTPT content. The following applies: for Stabilizing effect on nBTPT (MgSO4/MgO combinations): Experiment 4: YaraVera Amidas product comprising 462 ppm nBTPT (FIG. 4). The procedure: For lab scale experiments, 1.2 kg of solid fertilizer material was added to a lab scale drum. […] A residence time of 10 minutes was applied and the rotating speed of the drum was consequently the same in each experiment. […] Before use, the moisture-repellent coating was preheated to 80° C. Larger scale experiments with amounts up to 40 kg of fertilizer material were performed in a concrete mixer. The samples were stored under several conditions, dependent on the type of samples: • Bagged at room temperature (18-25° C.) • Bagged at 40° C. • Open to air at room temperature (18-25° C.) 3.

Take `[O]=[Ca]` [CaO, calcium oxide]: in data set [1], the Ammonia release entry was “producing ammonia”.
Consider `O=S(=O)([O-])[O-].[Mg+2]` [MgSO4 99.999%, MgSO4 anhydrous, 99.999%], for which the pH in “pH of MgSO4 grades” came out at 6.1.
On to `O=S(=O)([O-])[O-].[Na+].[Na+]` [Na2SO4, reference compound], for which, in data set [2] (Experiment 3: open plastic containers at room temperature for 21 days, 462 ppm nBTPT (FIG. 3)), the “nBTPT stability on the YaraVera Amidas product” value is on record as “negative effect on the stability of nBTPT”.
Consider `[O]=[Mg]` [MgO, magnesium oxide, reference compound], for which the “Stabilizing effect on nBTPT (MgSO4/MgO combinations)” value in data set [2] is given as “more effective than CaO”. Moreover, the Ammonia release result in data set [1] was “producing ammonia”.
In “pH of MgSO4 grades”, `O=S(=O)([O-])[O-].[Mg+2]` [MgSO4 99.5%, MgSO4 anhydrous, >99.5%] yielded a pH of 8.5.
Take `O=S(=O)([O-])[O-].[Mg+2]` [MgSO4, magnesium sulphate]: the “Stabilizing effect on nBTPT in the presence of UAS” value in data set [2] (Experiment 2: open to air at room temperature 40 days (FIG. 2A) and in bags at 40 °C 8 days (FIG. 2B), 462 ppm nBTPT) is on record as “comparable with the effect of the prior art compound (CaO)”. Further, in data set [2], the “Stabilizing effect on nBTPT (MgSO4/MgO combinations)” value is “little effect”. Further, the “Stabilizing effect at higher level of magnesium sulphate” value in data set [2] (more than 1 weight % magnesium sulphate in the composition) is on record as “did not produce a proportionally better stabilizing effect”. The Ammonia release entry in data set [1] is “no ammonia release; also recorded: no ammonia is generated”.
Take `O=S(=O)([O-])[O-].[Ca+2]` [CaSO4, CaSO4 anhydrous]: the Ammonia release entry in data set [1] is listed as “no ammonia release”.

The values are drawn from patent US11365161B2, “Urea ammonium sulphate-based composition and method for the manufacture thereof” (YARA INTERNATIONAL ASA, priority 2018, dated 2022).
